Measurements from article PMC7932555, “A diffusible signal factor of the intestine dictates Salmonella invasion through its direct control of the virulence activator HilD” (PLoS Pathogens, 2021).
Residue numbers refer to the chain shown, from its start.

What was measured:
HilD^Q290A = molecular target: T1, HilD^Q290A (Salmonella typhimurium, UniProt P0CL08, Q290A); test: ELISA binding of fatty acid to HilD Q290A
T1 construct: made in house; host or cells: E. coli BL21 (DE3)
T1 sequence (P0CL08 1-309 Q290A): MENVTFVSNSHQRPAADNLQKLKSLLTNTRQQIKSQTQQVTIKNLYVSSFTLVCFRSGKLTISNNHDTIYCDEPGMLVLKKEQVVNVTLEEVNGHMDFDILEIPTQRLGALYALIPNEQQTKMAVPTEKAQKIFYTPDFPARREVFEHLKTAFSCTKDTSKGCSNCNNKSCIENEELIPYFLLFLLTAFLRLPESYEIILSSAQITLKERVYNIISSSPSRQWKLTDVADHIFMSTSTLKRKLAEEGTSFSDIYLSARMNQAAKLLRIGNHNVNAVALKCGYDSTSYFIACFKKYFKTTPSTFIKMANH
Experimental: (§1) hilD or its mutated sequences were amplified and cloned into pET15b(+) under an N-terminal 6xHis tag. The constructs were transformed into E. coli BL21 (DE3) for expression. Transformants were induced with 5 mM IPTG for 4 hours. Cultures were centrifuged, lysed and treated with TALON beads as described above. Bound protein was eluted by applying 1 ml elution buffer to the columns. Elution was confirmed by SDS-PAGE. Following confirmation, eluted samples were dialyzed overnight in dialysis buffer (50 mM sodium phosphate, 300 mM NaCl, 10% glycerol). Protein concentration and quality were assessed by Bradford estimation and SDS-PAGE.
(§2) 96-well polystyrene plates were coated with 10 μM fatty acid in coating buffer (0.05 M sodium carbonate-bicarbonate, pH 9.3) and incubated overnight at 4°C. Wells were washed three times with PBS, followed by addition of blocking buffer (1% Ficoll 400 in PBS). After blocking, wells were washed three times with PBS, and different concentrations of proteins in blocking buffer were added and incubated at room temperature for 2 hours. […] After color development, reaction was stopped with 1N sulfuric acid and read spectrophotometrically at 490 nm. Binding was analyzed in GraphPad Prism.
(§3) All experiments were repeated twice and data of representative experiment have been shown. Kd was calculated by using Total One-Site binding in GraphPad Prism. […]

wild type HilD = molecular target: T2, wild type HilD (Salmonella typhimurium, UniProt P0CL08); test: EMSA of hilA promoter DNA with wild type HilD; format: biochemical; details: wild type HilD 150 nM; 10 nM hilA promoter DNA; increasing concentrations or 30 μM fatty acid
T2 construct: made in house; host or cells: E. coli BL21 (DE3)
T2 sequence (P0CL08 1-309): T1 sequence (P0CL08 1-309 Q290A) with A290Q
Experimental: (§4) These were performed as previously described. Briefly, 10 nM hilA promoter DNA (-286 to +31) was mixed with 150 nM HilD in a binding buffer (100 mM Tris pH 7.5, 10 mM EDTA, 1M KCl, 1 mM DTT, 50% v/v glycerol). Fatty acids or control solvents were added at various concentrations. Binding reaction was performed at room temperature for 1 hour. Dye solution was added to final concentration of 1X and samples were separated on 10% acrylamide gels. DNA was stained using SYBR Safe and visualized in BioRad GelDoc imaging system.

HilD^N44A = molecular target: T3, HilD^N44A (Salmonella typhimurium, UniProt P0CL08, N44A); test: EMSA of hilA promoter DNA with HilD N44A; format: biochemical; details: 10 nM hilA promoter DNA, 30 μM fatty acid
T3 construct: made in house; host or cells: E. coli BL21 (DE3)
T3 sequence (P0CL08 1-309 N44A): T1 sequence (P0CL08 1-309 Q290A) with N44A, A290Q
Experimental: as §4

HilD^K293A = molecular target: T4, HilD^K293A (Salmonella typhimurium, UniProt P0CL08, K293A); test: ELISA binding of fatty acid to HilD K293A
T4 construct: made in house; host or cells: E. coli BL21 (DE3)
T4 sequence (P0CL08 1-309 K293A): T1 sequence (P0CL08 1-309 Q290A) with A290Q, K293A
Experimental: as §1, §2, §3

HilD = molecular target: T5, HilD (Salmonella typhimurium, UniProt P0CL08, N44A); test: HilD half-life (degradation) assay by western blot; format: cell-based; details: HilD N44A-3XFLAG; 20 μM fatty acid
T5 construct: hilD with a C-terminal 3XFLAG tag was cloned into pWSK29 under control of the tetRA promoter; expressed in transfected cells; host or cells: Salmonella Typhimurium strain carrying pWSK29-PtetRA-hilD-3XFLAG (background with chromosomal hilD, hilC and rtsA null)
T5 sequence (P0CL08 1-309 N44A): T1 sequence (P0CL08 1-309 Q290A) with N44A, A290Q
Experimental: The HilD half-life was assessed as previously described. Salmonella strains having plasmids with tetracycline-inducible hilD or its mutated sequence with a C-terminal 3XFLAG tag and a sipB::lacZ fusion (for invasion gene expression assessment) were grown overnight and then diluted 1:100 into LB buffered with 100 mM MOPS (pH 6.7) with appropriate antibiotics and fatty acids or control solvents. After 2 hours of growth, aliquots were collected to quantitate sipB::lacZ expression in a β-galactosidase assay. Individual cultures were then equilibrated to an OD600 of 1.0 to ensure equal density at the half-life assay beginning point. New protein production was halted by addition of a cocktail of antibiotics (rifampin, streptomycin and spectinomycin). These cultures were incubated at 37°C and aliquots were collected every 30 minutes for 2 hours. Samples were lysed in 5X sample buffer, boiled, and immunoblotted with an anti-FLAG antibody to monitor HilD.

[1] = plates pre-adsorbed with 10 μM fatty acid

| Compound | Kd (HilD^Q290A; [1]) [µM] | effect on HilD binding to hilA promoter DNA (wild type HilD) | effect on HilD binding to hilA promoter DNA (HilD^N44A) | binding in ELISA (in words) (HilD^K293A) | HilD degradation (HilD) | binding in ELISA (in words) (HilD^Q290A) | Kd (HilD^K293A; [1]) [µM] |
| --- | --- | --- | --- | --- | --- | --- | --- |
| CCCCCCCCCCCCC/C=C\C(=O)O [c2-HDA, cis-2-hexadecenoic acid] | 9.7 | progressively impaired interaction of wild type HilD with the DNA target | retained its binding of target DNA | negligible binding | protected from degradation |  |  |
| CCCCCCCCCCCCC/C=C/C(=O)O [t2-HDA, trans-2-hexadecenoic acid] |  | efficiently reduced the DNA binding capacity | did not disrupt DNA binding |  | escaped degradation | failed to bind | 16.7 |
